Data reported in patent US8501753B2, “Useful pharmaceutical salts of 7-[(3R, 4R)-3-Hydroxy-4-hydroxymethyl-pyrrolidin-1-ylmethyl]-3, 5-dihydro-pyrrolo [3, 2-D] pyrimidin-4-one” (BioCryst Pharmaceuticals, Inc., priority 2009, dated 2013).

Experiment: Water sorption/desorption by dynamic vapor sorption (DVS)
Type: physicochemical
Settings: water sorption/desorption chamber
Text: Table 4 provides a summary of other solid state data collected for the monohydrate salts of compound 1 described in Examples 33-39. The temperature at which the salts dehydrated per DSC is shown in column 2. The percent weight loss as determined by TGA is shown in column 3; the weight loss approximated theoretical weight loss.

## O.O.O=C(O)CC(O)C(=O)O.O=c1[nH]cnc2c(CN3CC(O)C(CO)C3)c[nH]c12.O=c1[nH]cnc2c(CN3CC(O)C(CO)C3)c[nH]c12 [Hemi-L-malate]
  Weight gain from 0 to 20% RH from DVS: 0.87
  Weight gain from 0 to 90% RH from DVS: 5.68

## O.O.O=C(O)CCC(=O)O.O=c1[nH]cnc2c(CN3CC(O)C(CO)C3)c[nH]c12.O=c1[nH]cnc2c(CN3CC(O)C(CO)C3)c[nH]c12 (stereo not shown) [Hemisuccinate]
  Weight gain from 0 to 20% RH from DVS: 5.44
  Weight gain from 0 to 90% RH from DVS: 6.04
